Assay [1] addresses T1, A1 adenosine receptor (Cavia porcellus, UniProt P47745).
T1 sequence (P47745 1-326): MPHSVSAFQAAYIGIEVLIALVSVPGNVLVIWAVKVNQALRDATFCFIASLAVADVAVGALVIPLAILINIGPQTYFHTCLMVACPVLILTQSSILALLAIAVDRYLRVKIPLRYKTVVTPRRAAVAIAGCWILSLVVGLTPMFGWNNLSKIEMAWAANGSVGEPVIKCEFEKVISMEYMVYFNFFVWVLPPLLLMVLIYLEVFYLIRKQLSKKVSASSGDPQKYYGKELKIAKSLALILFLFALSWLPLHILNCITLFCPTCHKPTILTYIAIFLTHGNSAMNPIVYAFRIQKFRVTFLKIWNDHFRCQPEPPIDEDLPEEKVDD
Procedure: (§1) The perfusion buffer consisted of 120 mM NaCl, 27 mM NaHCO3, 3.7 mM KCl, 1.3 mM KH2 PO4, 0.64 mM MgSO4, 1.3 mM CaCl2, 2 mM pyruvate, and 5 mM glucose. […] Continuous drainage of the left ventricle by means of a catheter inserted across the mitral valve insured that this cardiac chamber did no external work. An electrode in the right ventricle monitored the electrocardiogram. Timed collections of cardiac effluent in a graduated cylinder during the steady-state phase of the flow responses to compound administration measured total coronary flow, which was also monitored by an in-line electromagnetic flowmeter in the aortic perfusion cannula. The quotient of the ratio of compound infusion (mol/min) divided by coronary flow rate (L/min) equals agonist concentration in the perfusate. […] The quotient of the EC50 of stimulus-QRS prolongation divided by the EC50 of coronary vasodilation provided an index of selectivity.

Assay [2] has as its target A2 adenosine receptor (Cavia porcellus, UniProt P46616).
Procedure: as §1
The target of assay [3] is A2 adenosine receptor. Particulars: read-out: EC50 for coronary vasodilation; coronary arteries (vasodilation); cited from earlier work.
The target of assay [4] is T1, A1 adenosine receptor. Particulars: BIOASSAY RESULTS table.
Procedure: as §1
For assay [5] the following is noted: in words; cited from earlier work.
The subject of assay [6] is guinea pig heart. Description: Second degree heart block (Wenckebach point), Langendorff guinea pig heart. Particulars: for minimal effective concentration: Cavia porcellus, read-out: Wenckbach. How it is done: An electrode in the right ventricle monitored the electrocardiogram. […] The rate of agonist infusion was increased stepwise at intervals of 3-4 minutes until the appearance of second degree heart block (Wenckebach point).

Assay [7] concerns A2 adenosine receptor.
Procedure: as §1
Where [8] appears, read: -LOG EC50 A1, BIOASSAY RESULTS table, A1.
The mark [9] stands for this setting: -LOG EC50 A2, BIOASSAY RESULTS table, A2.
[10] abbreviates: concentration at appearance of second degree heart block.
The mark [11] stands for this setting: EC50-SQPR divided by EC50-CF, >1 indicates selectivity for A2 adenosine receptor.
The mark [12] stands for this setting: EC50 -SQPR, prolongation of stimulus-QRS interval by 50% of maximum response, perfused guinea pig heart.
The mark [13] stands for this setting: EC50 -CF, coronary vasodilation, perfused guinea pig heart paced at 260 beats/min.

Like-named read-outs stand apart in the source and are kept apart here.

A2 adenosine receptor (Cavia porcellus, UniProt P46616), sequence (P46616 whole entry): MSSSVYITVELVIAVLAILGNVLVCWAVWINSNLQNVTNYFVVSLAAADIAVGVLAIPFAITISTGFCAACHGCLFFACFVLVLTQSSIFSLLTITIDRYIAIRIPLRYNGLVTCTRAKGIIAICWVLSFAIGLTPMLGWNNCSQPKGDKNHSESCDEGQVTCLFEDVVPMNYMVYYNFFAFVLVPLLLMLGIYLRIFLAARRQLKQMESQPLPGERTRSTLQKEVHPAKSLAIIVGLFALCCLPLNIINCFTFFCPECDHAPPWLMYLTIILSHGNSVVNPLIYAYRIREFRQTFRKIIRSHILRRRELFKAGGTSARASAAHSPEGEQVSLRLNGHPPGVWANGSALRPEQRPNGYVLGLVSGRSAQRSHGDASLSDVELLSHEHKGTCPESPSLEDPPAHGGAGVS

As usually defined, the EC50 is the concentration at which the effect is half-maximal. As for `CCCCCC=NNc1nc(N)c2ncn([C@@H]3O[C@H](CO)[C@@H](O)[C@H]3O)c2n1` [1-Pent, H], the figures for the 50% effective concentration (EC50) in assay [1] (setting [8]) and in assay [2] (setting [9]) were 38900 nM and 1.02 nM, respectively.

Turning to `Nc1nc(OCCC2CCCCC2)nc2c1ncn2[C@@H]1O[C@H](CO)[C@@H](O)[C@H]1O` [2-(2-cyclohexylethoxy)adenosine], the EC50 in assay [3] was 1 nM.

In the case of `Nc1nc(N)c2ncn([C@@H]3O[C@H](CO)[C@@H](O)[C@H]3O)c2n1` [2-Amino-adenosine, reference compound], the EC50 in assay [1] was 11200 nM; in assay [2] (setting [9]), 224 nM.

`Nc1nc(NN=CCCC2CCCCC2)nc2c1ncn2[C@@H]1O[C@H](CO)[C@@H](O)[C@H]1O` [2-C Hexylethyl, H]: in assay [1] (setting [8]), a half-maximal response (EC50) required 9770 nM.

As to `Nc1nc(NN=CCCCC2CCCCC2)nc2c1ncn2[C@@H]1O[C@H](CO)[C@@H](O)[C@H]1O` [3-C Hexylpropyl, H], the EC50 in assay [1] (setting [8]) was 66100 nM; in assay [2] (setting [9]) it was 1.78 nM.

Take `Nc1nc(NN=CC2CC=CCC2)nc2c1ncn2[C@@H]1O[C@H](CO)[C@@H](O)[C@H]1O` (some centres unmarked) [3-Cyclo-hexenyl, H]: the “-LOG EC50 A1” value in assay [4] came out at 4.86.

Regarding `CC(C)CCC=NNc1nc(N)c2ncn([C@@H]3O[C@H](CO)[C@@H](O)[C@H]3O)c2n1` [3-Me-1-Bu, H], the EC50 in assay [1] (setting [8]) was 20900 nM; in assay [2] (setting [9]), 0.468 nM.

In the case of `Nc1nc(NN=CCCCc2ccccc2)nc2c1ncn2[C@@H]1O[C@H](CO)[C@@H](O)[C@H]1O` [3-Ph Propyl, H], the half-maximal effective concentration (EC50) in assay [1] (setting [8]) was 66100 nM; in assay [2] (setting [9]), 1.95 nM.

Turning to `Nc1ncnc2c1ncn2[C@@H]1O[C@H](CO)[C@@H](O)[C@H]1O` [Adenosine, 9-β-D-ribofuranosyl-9H-purin-6-amine], the cardiovascular activity result in assay [5] was “hypotensive and bradycardia activity”.

Take `Nc1nc(NN=Cc2ccc(Cl)cc2)nc2c1ncn2[C@@H]1O[C@H](CO)[C@@H](O)[C@H]1O` [Example 1, 6-amino-2-{2-[(4-chlorophenyl)methylene]diazanyl}-9-(β-D-ribofuranosyl)-9H-purine]: the minimal effective concentration in assay [6] (setting [10]) came out at 30.4 µM.

On to `Nc1nc(NN=Cc2ccc(F)cc2)nc2c1ncn2[C@@H]1O[C@H](CO)[C@@H](O)[C@H]1O` [Example 2, 6-amino-2-{2-[(4-fluorophenyl)methylene]diazanyl}-9-(β-D-ribofuranosyl)-9H-purine], for which the “Selectivity (SQPR/CF)” value in assay [7] (setting [11]) was 8,500. Besides, the minimal effective concentration in assay [6] (setting [10]) is 30.9 µM. The half-maximal effective concentration (EC50) was 12600 nM in assay [1] (setting [12]), 2.45 nM in assay [2] (setting [9]) and 2.5 nM in assay [2] (setting [13]).

For `Nc1nc(NN=CC2CCCCC2)nc2c1ncn2[C@@H]1O[C@H](CO)[C@@H](O)[C@H]1O` [Example 3, 6-amino-2-{2-[(cyclohexyl)methylene]diazanyl}-9-(β-D-ribofuranosyl)-9H-purine], the “Selectivity (SQPR/CF)” value in assay [7] is 16,472. In addition, the minimal effective concentration in assay [6] came out at 5.92 µM. Moreover, the concentration giving a half-maximal response (EC50) in assay [1] (setting [8]) is 3550 nM; in assay [1] (setting [12]) it was 3550 nM; in assay [2] (setting [9]) it was 0.257 nM; in assay [2] (setting [13]) it was 0.3 nM.

With `Nc1nc(NN=Cc2ccc3ccccc3c2)nc2c1ncn2[C@@H]1O[C@H](CO)[C@@H](O)[C@H]1O` [Example 4, 6-amino-2-{2-[(2-naphthyl)methylene]diazanyl}-9-(β-D-ribofuranosyl)-9H-purine], the “Selectivity (SQPR/CF)” value in assay [7] (setting [11]) stood at 767. Further, in assay [6] (setting [10]), the minimal effective concentration stood at 10.1 µM. Further, the 50% effective concentration (EC50) in assay [1] (setting [8]) is 2630 nM; in assay [2] (setting [9]) it was 4.17 nM; in assay [2] (setting [13]), 4.2 nM.

Take `Nc1nc(NN=Cc2cccnc2)nc2c1ncn2[C@@H]1O[C@H](CO)[C@@H](O)[C@H]1O` [Example 5, 6-amino-2-{2-[(3-pyridyl)methylene]diazanyl}-9-(β-D-ribofuranosyl)-9H-purine]: in assay [7] (setting [11]), the “Selectivity (SQPR/CF)” value is listed as 2,657. Besides, the minimal effective concentration in assay [6] (setting [10]) is 63.5 µM. The molecule further displayed a concentration for a half-maximal effect (EC50) in assay [2] (setting [13]) of 15 nM.

For `Nc1nc(NN=Cc2ccncc2)nc2c1ncn2[C@@H]1O[C@H](CO)[C@@H](O)[C@H]1O` [Example 6, 6-amino-2-{2-[(4-pyridyl)methylene]diazanyl}-9-(β-D-ribofuranosyl)-9H-purine], the “Selectivity (SQPR/CF)” value in assay [7] (setting [11]) is on record as 2,817. In assay [6] (setting [10]), the minimal effective concentration came out at 68 µM. Besides, the midpoint of the response in assay [2] (setting [13]), the EC50, lay at 11 nM.

Take `Nc1nc(NN=Cc2ccccc2)nc2c1ncn2[C@@H]1O[C@H](CO)[C@@H](O)[C@H]1O` [Example 7, 6-amino-2-{2-(phenylmethylene)diazanyl}-9-(β-D-ribofuranosyl)-9H-purine]: the “Selectivity (SQPR/CF)” value in assay [7] (setting [11]) is given as 43,347. Also, the minimal effective concentration in assay [6] (setting [10]) was found to be 216 µM. Moreover, the EC50 in assay [1] (setting [8]) is 83200 nM; in assay [2] (setting [9]), 2.29 nM; in assay [2] (setting [13]), 2.3 nM.

Consider `NNc1nc(N)c2ncn([C@@H]3O[C@H](CO)[C@@H](O)[C@H]3O)c2n1` [Example 8, 6-amino-2-diazanyl-9-(β-D-ribofuranosyl)-9H-purine, reference compound], for which the “Selectivity (SQPR/CF)” value in assay [7] (setting [11]) amounted to 301. In assay [6] (setting [10]), the minimal effective concentration is 18.2 µM. In addition, the EC50 in assay [1] (setting [8]) was 20000 nM; in assay [1] (setting [12]), 14600 nM; in assay [2] (setting [9]), 79.4 nM; in assay [2] (setting [13]) it was 80.4 nM.

Turning to `Cc1ccc(C=NNc2nc(N)c3ncn([C@@H]4O[C@H](CO)[C@@H](O)[C@H]4O)c3n2)cc1` [Example 9, 6-amino-2-{2-[(4-methylphenyl)methylene]diazanyl}-9-(β-D-ribofuranosyl)-9H-purine], the Wenckbach in assay [6] (second degree heart block, unit printed nmol (Example 9)) was 103,514 nmol. This molecule showed an EC50 in assay [1] (setting [8]) of 39800 nM.

For the molecule `CC(=NNc1nc(N)c2ncn([C@@H]3O[C@H](CO)[C@@H](O)[C@H]3O)c2n1)c1ccc(F)cc1` [Example 10, 6-amino-2-{2-[1-(4-fluorophenyl)ethylidene]diazanyl}-9-(β-D-ribofuranosyl)-9H-purine], the “Selectivity (SQPR/CF)” value in assay [7] (setting [11]) is on record as 1,822. Moreover, the minimal effective concentration in assay [6] (setting [10]) is 7.3 µM. The figures for the concentration for a half-maximal effect (EC50) in assay [1] (setting [8]), in assay [2] (setting [9]) and in assay [2] (setting [13]) were 4170 nM, 3.24 nM and 3.2 nM, respectively.

With `COc1ccc(C=NNc2nc(N)c3ncn([C@@H]4O[C@H](CO)[C@@H](O)[C@H]4O)c3n2)cc1` [Example 11, 6-amino-2-{2-[(4-methoxyphenyl)methylene]diazanyl}-9-(β-D-ribofuranosyl)-9H-purine], in assay [6] (setting [10]), the minimal effective concentration stood at 50 µM.

As for `CC(=NNc1nc(N)c2ncn([C@@H]3O[C@H](CO)[C@@H](O)[C@H]3O)c2n1)c1ccccc1` [Example 12, 6-amino-2-{2-[1-(phenyl)ethylidene]diazanyl}-9-(β-D-ribofuranosyl)-9H-purine], in assay [7] (setting [11]), the “Selectivity (SQPR/CF)” value came out at 380. The minimal effective concentration in assay [6] (setting [10]) stood at 11 µM. This molecule registered a 50% effective concentration (EC50) in assay [2] (setting [13]) of 13 nM.

Consider `Nc1nc(NN=Cc2ccccn2)nc2c1ncn2[C@@H]1O[C@H](CO)[C@@H](O)[C@H]1O` [Example 13, 6-amino-2-{2-[(2-pyridyl)methylene]diazanyl}-9-(β-D-ribofuranosyl)-9H-purine], for which the “Selectivity (SQPR/CF)” value in assay [7] (setting [11]) is given as 42,000. The minimal effective concentration in assay [6] (second degree heart block, unit inferred) was 110 µM. In assay [2] (setting [13]), the concentration for a half-maximal effect (EC50) was 5.7 nM.

For `Nc1nc(NN=Cc2cccc3ccccc23)nc2c1ncn2[C@@H]1O[C@H](CO)[C@@H](O)[C@H]1O` [Example 14, 6-amino-2-{2-[(1-naphthyl)methylene]diazanyl}-9-(β-D-ribofuranosyl)-9H-purine], in assay [7] (setting [11]), the “Selectivity (SQPR/CF)” value is recorded as 110. In assay [6] (setting [10]), the minimal effective concentration is 2 µM. In addition, the EC50 in assay [2] (setting [13]) amounted to 9.5 nM.

In the case of `Nc1nc(NN=Cc2cccs2)nc2c1ncn2[C@@H]1O[C@H](CO)[C@@H](O)[C@H]1O` [Example 15, 6-amino-2-{2-[(2-thienyl)methylene]diazanyl}-9-(β-D-ribofuranosyl)-9H-purine], the “Selectivity (SQPR/CF)” value in assay [7] (setting [11]) is 4400. In addition, the minimal effective concentration in assay [6] (setting [10]) turned out to be 93 µM. Further, the concentration giving a half-maximal response (EC50) in assay [2] (setting [13]) stood at 14 nM.

For the molecule `Cc1cccc(C=NNc2nc(N)c3ncn([C@@H]4O[C@H](CO)[C@@H](O)[C@H]4O)c3n2)c1` [Example 16, 6-amino-2-{2-[(3-methylphenyl)methylene]diazanyl}-9-(β-D-ribofuranosyl)-9H-purine], the “Selectivity (SQPR/CF)” value in assay [7] is 4700. Further, the minimal effective concentration in assay [6] amounted to 47 µM. The response in assay [2] (setting [13]) was half-maximal at 4.4 nM (EC50).

(Values after patent US5278150A, “2-hydrazoadenosines and their utility for the treatmeat of vascular conditions” (Whitby Research, Inc., priority 1992, dated 1994).)
